# System: GRMD plasma proteins
# Assay type: in vivo, dog
# Conditions: EDG-5506 treatment to GRMD baseline
smiles,measurement,setting,value
O=c1ccc(-c2cnc(OCC(F)(F)F)nc2)nn1Cc1cncc(F)c1 [EDG-5506],Proteasome activator complex subunit 3 (PSME3): Change from GRMD Baseline (fraction),Decreased in GRMD,0.0977 fraction
same,Protein S100-A4 (S100A4): Change from GRMD Baseline (fraction),Decreased in GRMD,0.1824 fraction
same,Protein amnionless (AMN): Change from GRMD Baseline (fraction),Decreased in GRMD,0.1425 fraction
same,Protein jagged-1 (JAG1): Change from GRMD Baseline (fraction),Decreased in GRMD,0.2072 fraction
same,Retinol-binding protein 4 (RBP4): Change from GRMD Baseline (fraction),Decreased in GRMD,0.0942 fraction
same,Roundabout homolog 2 (ROBO2): Change from GRMD Baseline (fraction),Decreased in GRMD,0.1874 fraction
same,SLIT and NTRK-like protein 5 (SLITRK5): Change from GRMD Baseline (fraction),Decreased in GRMD,0.1091 fraction
same,SPARC (SPARC): Change from GRMD Baseline (fraction),Decreased in GRMD,0.0605 fraction
same,Sclerostin (SOST): Change from GRMD Baseline (fraction),Decreased in GRMD,0.197 fraction
same,Semaphorin-3E (SEMA3E): Change from GRMD Baseline (fraction),Decreased in GRMD,-0.0152 fraction
same,Semaphorin-5A (SEMA5A): Change from GRMD Baseline (fraction),Decreased in GRMD,0.0882 fraction
same,Serum albumin (ALB): Change from GRMD Baseline (fraction),Decreased in GRMD,0.068 fraction
same,Sialic acid-binding Ig-like lectin 6 (SIGLEC6): Change from GRMD Baseline (fraction),Decreased in GRMD,0.1345 fraction
same,Stem cell growth factor-alpha (CLEC11A): Change from GRMD Baseline (fraction),Decreased in GRMD,-0.071 fraction
same,T-lymphocyte surface antigen Ly-9 (LY9): Change from GRMD Baseline (fraction),Decreased in GRMD,0.0785 fraction
same,TGF-beta receptor type-2 (TGFBR2): Change from GRMD Baseline (fraction),Decreased in GRMD,-0.0644 fraction
same,Tropomyosin alpha-1 chain (TPM1): Change from GRMD Baseline (fraction),Decreased in GRMD,0.0152 fraction
same,Tumor necrosis factor receptor superfamily member 10B (TNFRSF10B): Change from GRMD Baseline (fraction),Decreased in GRMD,0.131 fraction
same,Tumor necrosis factor-inducible gene 6 protein (TNFAIP6): Change from GRMD Baseline (fraction),Decreased in GRMD,0.2046 fraction
same,Wnt inhibitory factor 1 (WIF1): Change from GRMD Baseline (fraction),Decreased in GRMD,0.0365 fraction
same,Activated Protein C (PROC): Change from GRMD Baseline (fraction),Increased in GRMD,-0.0147 fraction
same,Adiponectin (ADIPOQ): Change from GRMD Baseline (fraction),Increased in GRMD,-0.1461 fraction
same,Alanine aminotransferase 1 (GPT): Change from GRMD Baseline (fraction),Increased in GRMD,-0.0729 fraction
same,Alpha-2-antiplasmin (SERPINF2): Change from GRMD Baseline (fraction),Increased in GRMD,-0.0328 fraction
same,Apolipoprotein D (APOD): Change from GRMD Baseline (fraction),Increased in GRMD,-0.0675 fraction
same,Apolipoprotein L1 (APOL1): Change from GRMD Baseline (fraction),Increased in GRMD,-0.1374 fraction
same,Asialoglycoprotein receptor 1 (ASGR1): Change from GRMD Baseline (fraction),Increased in GRMD,-0.009 fraction
same,Bone morphogenetic protein 1 (BMP1): Change from GRMD Baseline (fraction),Increased in GRMD,0.0186 fraction
same,Breast cancer anti-estrogen resistance protein 3 (BCAR3): Change from GRMD Baseline (fraction),Increased in GRMD,-0.0831 fraction
same,C5a anaphylatoxin (C5): Change from GRMD Baseline (fraction),Increased in GRMD,0.2048 fraction
same,C-C motif chemokine 1 (CCL1): Change from GRMD Baseline (fraction),Increased in GRMD,-0.0825 fraction
same,C-C motif chemokine 3 (CCL3): Change from GRMD Baseline (fraction),Increased in GRMD,-0.078 fraction
same,C-X-C motif chemokine 5 (CXCL5): Change from GRMD Baseline (fraction),Increased in GRMD,-0.0608 fraction
same,CD63 antigen (CD63): Change from GRMD Baseline (fraction),Increased in GRMD,-0.0803 fraction
same,CD97 antigen (CD97): Change from GRMD Baseline (fraction),Increased in GRMD,-0.1124 fraction
same,CD109 antigen (CD109): Change from GRMD Baseline (fraction),Increased in GRMD,-0.0257 fraction
same,CD177 antigen (CD177): Change from GRMD Baseline (fraction),Increased in GRMD,-0.1306 fraction
same,Carbonic anhydrase 4 (CA4): Change from GRMD Baseline (fraction),Increased in GRMD,-0.0922 fraction
same,Caspase-3 (CASP3): Change from GRMD Baseline (fraction),Increased in GRMD,-0.0323 fraction
same,Cell adhesion molecule 3 (CADM3): Change from GRMD Baseline (fraction),Increased in GRMD,-0.0647 fraction
same,"Change from GRMD Baseline (fraction): 1-phosphatidylinositol 4,5-bisphosphate phosphodiesterase gamma-1 (PLCG1)",Increased in GRMD,-0.0855 fraction
same,"Change from GRMD Baseline (fraction): 14-3-3 protein family (YWHAB,YWHAE,YWHAG,YWHAH,YWHAQ,YWHAZ,SFN)",Increased in GRMD,-0.1463 fraction
same,Change from GRMD Baseline (fraction): 26S proteasome non-ATPase regulatory subunit 7 (PSMD7),Increased in GRMD,0.0373 fraction
same,Change from GRMD Baseline (fraction): 40S ribosomal protein S7 (RPS7),Increased in GRMD,-0.3231 fraction
same,Change from GRMD Baseline (fraction): A disintegrin and metalloproteinase with thrombospondin motifs 5 (ADAMTS5),Increased in GRMD,0.004 fraction
same,Change from GRMD Baseline (fraction): A disintegrin and metalloproteinase with thrombospondin motifs 15 (ADAMTS15),Increased in GRMD,-0.0189 fraction
same,Change from GRMD Baseline (fraction): AH receptor-interacting protein (AIP),Increased in GRMD,-0.1069 fraction
same,Change from GRMD Baseline (fraction): AMP Kinase (alpha2beta2gamma1) (PRKAA2 PRKAB2 PRKAG1),Increased in GRMD,-0.3422 fraction
same,"Change from GRMD Baseline (fraction): ATP synthase subunit beta, mitochondrial (ATP5B)",Increased in GRMD,0.3871 fraction
same,Change from GRMD Baseline (fraction): ATP-dependent RNA helicase DDX19B (DDX19B),Increased in GRMD,-0.2236 fraction
same,Change from GRMD Baseline (fraction): Acidic leucine-rich nuclear phosphoprotein 32 family member B (ANP32B),Increased in GRMD,-0.3439 fraction
same,Change from GRMD Baseline (fraction): Activin receptor type-1B (ACVR1B),Increased in GRMD,-0.0675 fraction
same,Change from GRMD Baseline (fraction): Adenylate kinase isoenzyme 1 (AK1),Increased in GRMD,-0.5663 fraction
same,Change from GRMD Baseline (fraction): Adenylosuccinate lyase (ADSL),Increased in GRMD,0.1427 fraction
same,Change from GRMD Baseline (fraction): Afamin (AFM),Increased in GRMD,-0.1952 fraction
same,Change from GRMD Baseline (fraction): Aflatoxin B1 aldehyde reductase member 2 (AKR7A2),Increased in GRMD,-0.1733 fraction
same,Change from GRMD Baseline (fraction): Alcohol dehydrogenase [NADP(+)] (AKR1A1),Increased in GRMD,-0.2833 fraction
same,Change from GRMD Baseline (fraction): Aminoacylase-1 (ACY1),Increased in GRMD,-0.4238 fraction
same,Change from GRMD Baseline (fraction): Amphoterin-induced protein 2 (AMIGO2),Increased in GRMD,0.0688 fraction
same,Change from GRMD Baseline (fraction): Annexin A6 (ANXA6),Increased in GRMD,-0.2759 fraction
same,Change from GRMD Baseline (fraction): Anterior gradient protein 2 homolog (AGR2),Increased in GRMD,-0.0848 fraction
same,Change from GRMD Baseline (fraction): Apolipoprotein E (APOE),Increased in GRMD,-0.1554 fraction
same,Change from GRMD Baseline (fraction): Apolipoprotein E (isoform E3) (APOE),Increased in GRMD,0.0588 fraction
same,Change from GRMD Baseline (fraction): Apolipoprotein E (isoform E4) (APOE),Increased in GRMD,-0.0389 fraction
same,Change from GRMD Baseline (fraction): Apoptosis regulator Bcl-2 (BCL2),Increased in GRMD,-0.1414 fraction
same,Change from GRMD Baseline (fraction): Artemin (ARTN),Increased in GRMD,-0.0443 fraction
same,Change from GRMD Baseline (fraction): Arylsulfatase B (ARSB),Increased in GRMD,-0.0585 fraction
same,Change from GRMD Baseline (fraction): B-cell receptor CD22 (CD22),Increased in GRMD,-0.1198 fraction
same,Change from GRMD Baseline (fraction): Baculoviral IAP repeat-containing protein 5 (BIRC5),Increased in GRMD,-0.1027 fraction
same,Change from GRMD Baseline (fraction): Basal Cell Adhesion Molecule (BCAM),Increased in GRMD,-0.0829 fraction
same,Change from GRMD Baseline (fraction): Bcl-2-like protein 1 (BCL2L1),Increased in GRMD,-0.0786 fraction
same,Change from GRMD Baseline (fraction): Bone sialoprotein 2 (IBSP),Increased in GRMD,-0.0968 fraction
same,Change from GRMD Baseline (fraction): C-C motif chemokine 13 (CCL13),Increased in GRMD,-0.0908 fraction
same,Change from GRMD Baseline (fraction): C-C motif chemokine 23 (CCL23),Increased in GRMD,-0.0571 fraction
same,Change from GRMD Baseline (fraction): CCAAT/enhancer-binding protein beta (CEBPB),Increased in GRMD,-0.0589 fraction
same,Change from GRMD Baseline (fraction): CD59 glycoprotein (CD59),Increased in GRMD,-0.0497 fraction
same,Change from GRMD Baseline (fraction): Calcineurin (PPP3CA PPP3R1),Increased in GRMD,-0.2961 fraction
same,Change from GRMD Baseline (fraction): Calcineurin subunit B type 1 (PPP3R1),Increased in GRMD,-0.1572 fraction
same,Change from GRMD Baseline (fraction): Calcium/calmodulin-dependent protein kinase type 1 (CAMK1),Increased in GRMD,-0.1284 fraction
same,Change from GRMD Baseline (fraction): Calcium/calmodulin-dependent protein kinase type 1D (CAMK1D),Increased in GRMD,-0.0749 fraction
same,Change from GRMD Baseline (fraction): Calcium/calmodulin-dependent protein kinase type II subunit alpha (CAMK2A),Increased in GRMD,-0.4545 fraction
same,Change from GRMD Baseline (fraction): Calcium/calmodulin-dependent protein kinase type II subunit beta (CAMK2B),Increased in GRMD,-0.4519 fraction
same,Change from GRMD Baseline (fraction): Calcium/calmodulin-dependent protein kinase type II subunit delta (CAMK2D),Increased in GRMD,-0.3407 fraction
same,Change from GRMD Baseline (fraction): Calpain I (CAPN1 CAPNS1),Increased in GRMD,-0.011 fraction
same,Change from GRMD Baseline (fraction): Calpastatin (CAST),Increased in GRMD,-0.036 fraction
same,Change from GRMD Baseline (fraction): Carbonic anhydrase 3 (CA3),Increased in GRMD,-0.4126 fraction
same,Change from GRMD Baseline (fraction): Cardiotrophin-1 (CTF1),Increased in GRMD,-0.0756 fraction
same,Change from GRMD Baseline (fraction): Catalase (CAT),Increased in GRMD,-0.1548 fraction
same,Change from GRMD Baseline (fraction): Choline/ethanolamine kinase (CHKB),Increased in GRMD,-0.0698 fraction
same,Change from GRMD Baseline (fraction): Chymase (CMA1),Increased in GRMD,-0.0479 fraction
same,Change from GRMD Baseline (fraction): Clusterin (CLU),Increased in GRMD,-0.1079 fraction
same,Change from GRMD Baseline (fraction): Complement component C6 (C6),Increased in GRMD,0.1732 fraction
same,Change from GRMD Baseline (fraction): Complement component C8 (C8A C8B C8G),Increased in GRMD,-0.1065 fraction
same,Change from GRMD Baseline (fraction): Complement factor D (CFD),Increased in GRMD,-0.1183 fraction
same,Change from GRMD Baseline (fraction): Creatine kinase M-type (CKM),Increased in GRMD,-0.3439 fraction
same,Change from GRMD Baseline (fraction): Creatine kinase M-type:Creatine kinase B-type heterodimer (CKB CKM),Increased in GRMD,-0.3657 fraction
same,Change from GRMD Baseline (fraction): Cyclin-dependent kinase inhibitor 1B (CDKN1B),Increased in GRMD,-0.1686 fraction
same,Change from GRMD Baseline (fraction): Cysteine and glycine-rich protein 3 (CSRP3),Increased in GRMD,-0.0108 fraction
same,Change from GRMD Baseline (fraction): Cytochrome c (CYCS),Increased in GRMD,-0.561 fraction
same,Change from GRMD Baseline (fraction): DNA repair protein RAD51 homolog 1 (RAD51),Increased in GRMD,-0.1205 fraction
same,Change from GRMD Baseline (fraction): Desmoglein-1 (DSG1),Increased in GRMD,-0.0821 fraction
same,Change from GRMD Baseline (fraction): Dickkopf-like protein 1 (DKKL1),Increased in GRMD,-0.0601 fraction
same,Change from GRMD Baseline (fraction): Down syndrome cell adhesion molecule (DSCAM),Increased in GRMD,-0.0864 fraction
same,Change from GRMD Baseline (fraction): Dual specificity mitogen-activated protein kinase kinase 1 (MAP2K1),Increased in GRMD,-0.3654 fraction
same,Change from GRMD Baseline (fraction): Dual specificity protein phosphatase 3 (DUSP3),Increased in GRMD,-0.3709 fraction
same,Change from GRMD Baseline (fraction): Dynein light chain roadblock-type 1 (DYNLRB1),Increased in GRMD,-0.5348 fraction
same,Change from GRMD Baseline (fraction): Ectonucleoside triphosphate diphosphohydrolase 1 (ENTPD1),Increased in GRMD,-0.1101 fraction
same,Change from GRMD Baseline (fraction): Endothelin-converting enzyme 1 (ECE1),Increased in GRMD,-0.1039 fraction
same,Change from GRMD Baseline (fraction): Ephrin type-A receptor 1 (EPHA1),Increased in GRMD,-0.0912 fraction
same,Change from GRMD Baseline (fraction): Ephrin type-B receptor 6 (EPHB6),Increased in GRMD,0.1966 fraction
same,Change from GRMD Baseline (fraction): Epidermal growth factor (EGF),Increased in GRMD,-0.0588 fraction
same,Change from GRMD Baseline (fraction): Epidermal growth factor receptor variant III (EGFR),Increased in GRMD,-0.052 fraction
same,Change from GRMD Baseline (fraction): Erythropoietin receptor (EPOR),Increased in GRMD,-0.0772 fraction
same,Change from GRMD Baseline (fraction): Estrogen receptor (ESR1),Increased in GRMD,-0.0792 fraction
same,Change from GRMD Baseline (fraction): Eukaryotic translation initiation factor 4H (EIF4H),Increased in GRMD,-0.4334 fraction
same,Change from GRMD Baseline (fraction): Eukaryotic translation initiation factor 4 gamma 2 (EIF4G2),Increased in GRMD,-0.3268 fraction
same,Change from GRMD Baseline (fraction): Extracellular matrix protein 1 (ECM1),Increased in GRMD,-0.1471 fraction
same,Change from GRMD Baseline (fraction): Fibroblast growth factor 8 isoform B (FGF8),Increased in GRMD,-0.0878 fraction
same,Change from GRMD Baseline (fraction): Fibroblast growth factor 9 (FGF9),Increased in GRMD,-0.0286 fraction

# Reference: PMC10178848, “Modulating fast skeletal muscle contraction protects skeletal muscle in animal models of Duchenne muscular dystrophy” (The Journal of Clinical Investigation, 2023)
